Marks after values point to notes of the source that are not given here.
Experiments:
Format in all cases: cell-based, human
CD14 = CD14 surface expression on PBM by FACS; conditions: for CD14 expression (MFI): PBM preincubated 24 hour, 20 ng/ml IL-9 or IL-4, 200 U/ml IFN-γ, means±SD, medium 107 ± 4; for CD14 expression on the surface of PBM compared with medium alone: preincubated for 24 hour
Method: Table 2. Cells (0.2×10^6) were preincubated for 24 hour with cytokines (20 ng/ml for IL-9 or IL-4 and 200 U/ml for IFN-γ), before the assessment of LPS receptor expression by immunostaining using anti-human CD14 mAb conjugated to FITC and anti-human TLR4 rabbit Ab followed by mouse anti-rabbit IgG (MAR-FITC). Cell-associated fluorescence was evaluated by FACS and expressed as mean fluorescence intensity (MFI). Autofluorescence of PBM was negligible (MFI: 3±1). Data are means±SD (n=3), and are representative of two experiments. *P<0.05 compared with cells preincubated with medium.
Additional stainings for CD14 and Toll-like receptor (TLR)-4 were performed on PBM preincubated for 24 hour with cytokines, using respectively FITC-conjugated anti-CD14 mAb (clone MøP9, mIgG2b, Becton Dickinson) and anti-TLR4 rabbit Ab (Santa Cruz, Calif.) followed by F (ab′)2 fragments of mouse anti-rabbit IgG (MAR)-FITC.

LPS-stimulated AM [1] = assay: IL-8 release by ELISA, AM; conditions: preincubated 24 hour, LPS 20 hour
Method: PBM and AM obtained as described infra (1×10^6 PBM, 0.5×10^6 AM) were preincubated for 24 hour with cytokines, IL-4, IL-9 (20 ng/ml) and IFN-γ (200 U/ml) before the stimulation by LPS (1 μg/ml) for 20 h. Supernatants were harvested and frozen at −20° C. until cytokine titration. TNF-α release was determined in supernatants by a cytotoxic bioassay using WEHI 164 clone 13 target cells (Espevik and Nissen-Meyer, J. Immunol. Methods, 95:99-105 (1986) (incorporated herein by reference)), while IL-8 was quantitated in the same supernatants by ELISA. FIG. 5 depicts the effects of IL-9, IL-4, and IFN-γ on the release of TNFα (A) and IL-8 (B) by LPS-stimulated PBM and AM. […]
(§1) Cells (1×10^6 PBM or 0.5×10^6 AM/well) were distributed in 24-well plates (Falcon), preincubated in cRPMI for 24 hours at 37° C., 5% CO2 with cytokines (IL-9, IL-4 (20 ng/ml) and IFN-γ (200 U/ml)) and stimulated for 20 hours with 1 μg/ml LPS without removing cytokines. […] Release of TNF-α was quantified by a cytotoxicity bioassay using WEHI 164 cells clone 13, as previously described (Espevik and Nissen-Meyer, J. Immunol. Methods, 95:99-105 (1986) incorporated herein by reference), using rhTNF-α from Boehringer as a standard. IL-8, IL-10 and TGF-β1 concentrations were determined by ELISA. A kit from CLB (Amsterdam, The Netherlands) was used for IL-10 quantitation, following the manufacturer's protocol. […]

LPS-stimulated AM [2] = assay: TGF-β1 release by ELISA, AM; conditions: acid-treated supernatants; preincubated 24 hour 20 ng/ml, LPS 20 h; medium-preincubated 109±23
Method: FIG. 6 depicts the effect of IL-9, IL-4 and IFN-γ on the release of IL-10 (A) and TGF-β1 (B) by LPS-stimulated PBM and AM cultured under the same conditions as described in FIG. 5 Example I. D. TGF-β1 was determined by ELISA in crude supernatants (untreated supernatants) and in ethanol-acid (acid-treated) supernatants, using a kit from Biosource for determining TGF-β1 release from its latent complexes. An ELISA kit from CLB (Amsterdam, The Netherlands) was used to determine IL-10 following the manufacturer's protocol. […] Data are means±SEM (n=3). *P<0.05 compared with unstimulated cells; **P<0.05 compared with cells preincubated with medium.
as §1

Molecule	CD14 expression (MFI) (CD14)	effect on the up regulation of CD14 on PBM incubated with IFN-γ (CD14; co-incubation with IFN-γ)	CD14 expression on the surface of PBM compared with medium alone (CD14)	effect on IL-8 release by LPS-stimulated AM (LPS-stimulated AM [1])	production of TGF-β1 by LPS-stimulated AM (LPS-stimulated AM [2])
IL-9: Human IL-9 purified from SF9 insect cell cultures infected with recombinant baculovirus	108 ± 5 MFI	inhibited	not significantly different	no significant modulation	366+21 pg/ml
IL-4: Th2 cytokine interleukin-4 used as comparator, 20 ng/ml	57 ± 3* MFI	–	down regulated	–	–
IFN-γ: Interferon gamma, primes mononuclear phagocytes, 200 U/ml (protein, UniProt P01579 24-161, looked up) Interferon gamma: QDPYVKEAENLKKYFNAGHSDVADNGTLFLGILKNWKEESDRKIMQSQIVSFYFKLFKNFKDDQSIQKSVETIKEDMNVKFFNSNKKKRDDFEKLTNYSVTDLNVQRKAIHELIQVMAELSPAAKTGKRKRSQMLFRG	121 ± 6* MFI	–	increased	no significant modulation	–

Source: patent US20030091533A1, “Regulation of mononuclear phagocyte stimulation” (priority 2001, published 2003)
